Laboratory results published in patent publication US6620397B2, “Material and method for treating photographic effluents” (Eastman Kodak Company, priority 2001, dated 2003).

Assay: Oxidation of cyclohexene to cyclohexanol followed by FT Raman spectroscopy
Method: When no imogolite was present in the test the volume of imogolite was replaced by an equivalent volume of water so as to retain a constant volume. The oxidation of the cyclohexene was followed by FT (Fourier transform) Raman spectroscopy by measuring the percentage of cyclohexene converted to cyclohexanol after 48 hours. The tests were carried out at ambient temperature.

OO [Example 13, hydrogen peroxide]
Cyclohexene oxidized after 48 h (%) (5 g material, 20 ml cyclohexene in 80 ml methanol, ambient temperature, 48 hours): 3%
Oxidizing property towards cyclohexene (in words) (summary of Table I): weak oxidizing agent
